According to US12509445B2, “Herbicidally active 4-cyclopropyl-6-[4-(trifluormethyl)pyrazol-1-yl)]pyrimidines” (Bayer Aktiengesellschaft, priority 2019, dated 2025):

What was measured:
Assay type in all cases: in vivo
[1] = tested on: Abutilon theophrasti (ABUTH); experiment: Post-emergence herbicidal action
Experimental: (§1) Seeds of monocotyledonous and dicotyledonous weeds and crop plants are placed in sandy loam in plastic or organic plant pots, covered with soil and cultivated in a greenhouse under controlled growth conditions. 2 to 3 weeks after sowing, the test plants are treated at the one-leaf stage. The compounds of the invention, formulated in the form of wettable powders (WP) or as emulsion concentrates (EC), are then sprayed onto the green parts of the plants as aqueous suspension or emulsion with addition of 0.5% additive at a water application rate of 600 l/ha (converted). After the test plants have been kept in the greenhouse under optimum growth conditions for about 3 weeks, the activity of the preparations is rated visually in comparison to untreated controls. For example, 100% activity=the plants have died, 0% activity=like control plants.
(§2) The abbreviations used here have the following meanings: • ABUTH Abutilon theophrasti • AMARE Amaranlhus retroflexus • CYPES Cyperus serotinus • ECHCGEchinocloa crus galli • LOLRI Lolium rigidum Gaudin • PHBPU Pharbitis purpurcum • SETVI Setaria viridis • VERPE Veronica persica • ALOMY Alopccurus myosuroides • AVEFA Avena fatua • DIGSA Digitaria sanguinalis • LOLMU Lolium multiflorum • MATIN Matricaria inodora • POLCO Polygonum convolvulus • STEME Stellaria media • VIOTR Viola tricolor
(§3) The compounds according to the invention were tested by the post-emergence and pre-emergence methods under the conditions described above for comparative purposes with the structurally closest compounds known from WO 2005/089551 A1 (D1).

[2] = tested on: Alopecurus myosuroides (ALOMY); experiment: Post-emergence herbicidal action
Experimental: as §1, §2, §3

Avena fatua (AVEFA) [3] = experiment: Post-emergence herbicidal action
Experimental: as §1, §2, §3

[4] = tested on: Echinochloa crus-galli (ECHCG); experiment: Post-emergence herbicidal action
Experimental: as §1, §2, §3

[5] = tested on: Lolium multiflorum (LOLMU); experiment: Post-emergence herbicidal action
Experimental: as §1, §2, §3

[6] = tested on: Matricaria inodora (MATIN); experiment: Post-emergence herbicidal action
Experimental: as §1, §2, §3

[7] = tested on: Polygonum convolvulus (POLCO); experiment: Post-emergence herbicidal action
Experimental: as §1, §2, §3

Setaria viridis (SETVI) [8] = experiment: Post-emergence herbicidal action
Experimental: as §1, §2, §3

Stellaria media (STEME) [9] = experiment: Post-emergence herbicidal action
Experimental: as §1, §2, §3

[10] = tested on: Amaranthus retroflexus (AMARE); experiment: Post-emergence herbicidal action; conditions: 320 g/ha, visual rating after about 3 weeks vs untreated controls, 100% = plants have died
Experimental: as §1, §2

[11] = tested on: Pharbitis purpurea (PHBPU); experiment: Post-emergence herbicidal action; conditions: 320 g/ha, visual rating after about 3 weeks vs untreated controls, 100% = plants have died
Experimental: as §1, §2

Veronica persica (VERPE) [12] = experiment: Post-emergence herbicidal action; conditions: 320 g/ha, visual rating after about 3 weeks vs untreated controls, 100% = plants have died
Experimental: as §1, §2

Viola tricolor (VIOTR) [13] = experiment: Post-emergence herbicidal action; conditions: 320 g/ha, visual rating after about 3 weeks vs untreated controls, 100% = plants have died
Experimental: as §1, §2

[14] = tested on: Alopecurus myosuroides (ALOMY); experiment: Pre-emergence herbicidal action
Source text: as §2
(§4) Seeds of monocotyledonous and dicotyledonous weed plants and crop plants are placed in plastic or organic plant pots and covered with soil. The compounds of the invention, formulated in the form of wettable powders (WP) or as emulsion concentrates (EC), are then applied onto the surface of the covering soil as aqueous suspension or emulsion with addition of 0.5% additive at a water application rate of 600 l/ha (converted). After the treatment, the pots are placed in a greenhouse and kept under good growth conditions for the trial plants. After about 3 weeks, the effect of the preparations is scored visually in comparison with untreated controls as percentages. For example, 100% activity=the plants have died, 0% activity=like control plants.
as §3

[15] = tested on: Echinochloa crus-galli (ECHCG); experiment: Pre-emergence herbicidal action
Source text: as §2, §4, §3

[16] = tested on: Matricaria inodora (MATIN); experiment: Pre-emergence herbicidal action
Source text: as §2, §4, §3

[17] = tested on: Polygonum convolvulus (POLCO); experiment: Pre-emergence herbicidal action
Source text: as §2, §4, §3

Setaria viridis (SETVI) [18] = experiment: Pre-emergence herbicidal action
Source text: as §2, §4, §3

Stellaria media (STEME) [19] = experiment: Pre-emergence herbicidal action
Source text: as §2, §4, §3

Viola tricolor (VIOTR) [20] = experiment: Pre-emergence herbicidal action
Source text: as §2, §4, §3

[21] = tested on: Abutilon theophrasti (ABUTH); experiment: Pre-emergence herbicidal action; conditions: 320 g/ha, visual scoring after about 3 weeks vs untreated controls, 100% = plants have died
Source text: as §2, §4

[22] = tested on: Amaranthus retroflexus (AMARE); experiment: Pre-emergence herbicidal action; conditions: 320 g/ha, visual scoring after about 3 weeks vs untreated controls, 100% = plants have died
Source text: as §2, §4

Avena fatua (AVEFA) [23] = experiment: Pre-emergence herbicidal action; conditions: 320 g/ha, visual scoring after about 3 weeks vs untreated controls, 100% = plants have died
Source text: as §2, §4

[24] = tested on: Lolium multiflorum (LOLMU); experiment: Pre-emergence herbicidal action; conditions: 320 g/ha, visual scoring after about 3 weeks vs untreated controls, 100% = plants have died
Source text: as §2, §4

[25] = tested on: Pharbitis purpurea (PHBPU); experiment: Pre-emergence herbicidal action; conditions: 320 g/ha, visual scoring after about 3 weeks vs untreated controls, 100% = plants have died
Source text: as §2, §4

Veronica persica (VERPE) [26] = experiment: Pre-emergence herbicidal action; conditions: 320 g/ha, visual scoring after about 3 weeks vs untreated controls, 100% = plants have died
Source text: as §2, §4

[27] = tested on: harmful plants such as Abutilon theophrasti, Alopecurus myosuroides, Amaranthus retroflexus, Avena fatua, Echinochloa crus-galli, Matricaria inodora, Pharbitis …; experiment: Post-emergence herbicidal action, summary in text; conditions: post-emergence treatment
Experimental: as §1
In this case, for example, in the post-emergence process, the compounds No. 1-001 and 111-001 have very good herbicidal activity (80% to 100% herbicidal action) against harmful plants such as Abutilon theophrasti, Alopecurus myosuroides, Amaranthus retroflexus, Avena fatua, Echinochloa crus-galli, Matricaria inodora, Pharbitis purpurea, Setaria viridis, Stellaria media, Veronica persica and Viola tricolor at an application rate of 0.32 kg of active substance or less per hectare. At the same time, some compounds according to the invention leave graminaceous crops such as barley, wheat, rye, millet/sorghum, maize, rice or sugarcane virtually undamaged when applied by the post-emergence method, even at high active compound dosages. Some substances are additionally also benign to dicotyledonous crops such as soya, cotton, oilseed rape or sugarbeet.

[28] = tested on: harmful plants such as Alopecurus myosuroides, Amaranthus retroflexus, Avena fatua, Echinochloa crus-galli, Matricaria inodora, Pharbitis purpurea, Polygonum …; experiment: Pre-emergence herbicidal action, summary in text; conditions: pre-emergence treatment
Source text: as §4
At the same time, some compounds according to the invention leave graminaceous crops such as barley, wheat, rye, millet/sorghum, maize, rice or sugarcane virtually undamaged when applied by the pre-emergence method, even at high active compound dosages. Some compounds are additionally also benign to dicotyledonous crops such as soya, cotton, oilseed rape or sugarbeet.

[29] = 80 g of a.i./ha, comparative test
[30] = 320 g/ha, visual rating after about 3 weeks vs untreated controls, 100% = plants have died
[31] = 320 g/ha, visual scoring after about 3 weeks vs untreated controls, 100% = plants have died

SMILES: Cn1nc(C(F)(F)F)cc1Oc1nc(C2CC2)cc(-n2cc(C(F)(F)F)cn2)n1 [III-001]
- Herbicidal action against ABUTH [1, 29]: 90%
- Post-emergence action ABUTH [1, 30]: 90%
- Herbicidal action against ALOMY [2, 29]: 70%
- Post-emergence action ALOMY [2, 30]: 90%
- Herbicidal action against AVEFA (Avena fatua (AVEFA) [3]; [29]): 80%
- Post-emergence action AVEFA (Avena fatua (AVEFA) [3]; [30]): 90%
- Herbicidal action against ECHCG [4, 29]: 80%
- Post-emergence action ECHCG [4, 30]: 90%
- Herbicidal action against LOLMU [5, 29]: 70%
- Post-emergence action LOLMU [5, 30]: 90%
- Herbicidal action against MATIN [6, 29]: 80%
- Post-emergence action MATIN [6, 30]: 90%
- Herbicidal action against POLCO [7, 29]: 90%
- Post-emergence action POLCO [7, 30]: 90%
- Herbicidal action against SETVI (Setaria viridis (SETVI) [8]; [29]): 90%
- Post-emergence action SETVI (Setaria viridis (SETVI) [8]; [30]): 100%
- Herbicidal action against STEME (Stellaria media (STEME) [9]; [29]): 90%
- Post-emergence action STEME (Stellaria media (STEME) [9]; [30]): 100%
- Post-emergence action AMARE [10]: 100%
- Post-emergence action PHBPU [11]: 100%
- Post-emergence action VERPE (Veronica persica (VERPE) [12]): 100%
- Post-emergence action VIOTR (Viola tricolor (VIOTR) [13]): 100%
- Herbicidal action against ALOMY [14, 29]: 100%
- Pre-emergence action ALOMY [14, 31]: 100%
- Herbicidal action against ECHCG [15, 29]: 100%
- Pre-emergence action ECHCG [15, 31]: 100%
- Herbicidal action against MATIN [16, 29]: 100%
- Pre-emergence action MATIN [16, 31]: 100%
- Herbicidal action against POLCO [17, 29]: 90%
- Pre-emergence action POLCO [17, 31]: 90%
- Herbicidal action against SETVI (Setaria viridis (SETVI) [18]; [29]): 100%
- Pre-emergence action SETVI (Setaria viridis (SETVI) [18]; [31]): 100%
- Herbicidal action against STEME (Stellaria media (STEME) [19]; [29]): 90%
- Pre-emergence action STEME (Stellaria media (STEME) [19]; [31]): 100%
- Herbicidal action against VIOTR (Viola tricolor (VIOTR) [20]; [29]): 100%
- Pre-emergence action VIOTR (Viola tricolor (VIOTR) [20]; [31]): 100%
- Pre-emergence action ABUTH [21]: 90%
- Pre-emergence action AMARE [22]: 90%
- Pre-emergence action AVEFA (Avena fatua (AVEFA) [23]): 90%
- Pre-emergence action LOLMU [24]: 90%
- Pre-emergence action PHBPU [25]: 100%
- Pre-emergence action VERPE (Veronica persica (VERPE) [26]): 100%
- herbicidal action against harmful plants (in words) [27]: good herbicidal action
- herbicidal action against harmful plants (in words) [28]: good herbicidal action
